Data published in PMC3517777, “Phase I study of TP300 in patients with advanced solid tumors with pharmacokinetic, pharmacogenetic and pharmacodynamic analyses” (BMC Cancer, 2012).

Legend:
[1] = design: method as in PMID 10873073; settings: irinotecan 350 mg/m^2, 3-weekly dosing regimen; cited from earlier work
AOX1 = settings: human, in vivo
Experimental: (§1) Blood samples for pharmacogenomic analysis were collected and all samples anonymised for subsequent storage, assay and analysis. The impact on Cmax and AUC of genetic polymorphisms of CYP2D6, which is assumed to make some contribution to the hydroxylation of TP3076, but not TP3011, AOX1, which metabolises TP3076 to TP3011, and UGT1A1, which metabolises SN-38 to its glucuronide, but is not believed to influence TP300 metabolism were explored. The analysis was performed with the invader method or polymerase chain reaction (PCR)-invader method for single nucleotide polymorphisms (SNPs) of CYP2D6 and UGT1A1 *28 and with the long-PCR method for deletion of CYP2D6 and UGT1A1 gene. AOX1 SNPs were analysed by a direct sequencing method. Genomic DNAs were extracted from frozen peripheral blood of 31 subjects using an automated DNA extractor BioRobotMDx and commercial DNA purification kits (Qiagen). Quality and quantity of the DNAs were checked by the measurement of absorbencies at 260 nm and 280 nm. Primers were designed to amplify all the 35 exons of Aldehyde oxidese 1 gene (NCBI accession No. NM_001159) including some intronic flanking regions. The specificity of PCR conditions was confirmed by the agarose gel electrophoresis. Amplicons were prepared twice for every exons. The amplicons were subsequently treated with ExoSAP-IT (GE Healthcare) followed by the reactions with a cycle sequencing kit (BigDye Terminator v3.1, Applied Biosystems). The fragments obtained were purified using X-Terninator purification kit (Applied Biosystems) and analysed on an automated DNA sequencer (3730xl DNA Analyzer, Applied Biosystems). The resulted sequences were compared against the reference sequence using the variant reporter software (Applied Biosystems).

UGT1A1 = settings: human, in vivo
Experimental: as §1

[2] = Plasma and urine pharmacokinetics after TP300 infusion (LC-MS/MS, non-compartmental); format: in vivo, human; settings: for fe (urinary excretion ratio): urine up to 48 hours, mean
Experimental: Venous blood (3 mL) was taken into sodium heparin tubes containing 30 μL of 46% citric acid, centrifuged 1500g at 4°C for 10 min and 1 mol/L hydrochloric acid was added (1:10) to plasma from each subject at 10 time points during cycle 1 (pre dose, then 1, 1.25, 1.5, 2, 3, 5, 8, 24, 48 hours after the start of administration) and stored at −70°C. Samples were processed by extraction of protein using addition of organic solvent containing internal standards and assayed by LC-MS/MS with a robust, sensitive and validated method for the simultaneous determination of a novel topoisomerase 1 inhibitor CH0793076 (TP3076), the prodrug CH4556300 (TP300), and the active metabolite CH0793011 (TP3011). All plasma had been acidified during collection to avoid the pH-based degradation of TP300 and to shift the equilibria of TP3076 and TP3011 between the lactone and carboxylate forms towards the lactone forms. After the plasma proteins were precipitated with methanol:acetonitrile:HCl 1M (50:50:1, v:v:v) containing stable isotopic internal standards, the analytes were trapped on an Xterra MS C18 column (10×2.1 mm i.d., 5 μm) and separated on a Gemini C18 column (50×2.0 mm i.d., 5 μm) using column-switching liquid chromatography. Electrospray ionization in the positive-ion mode and multiple reaction monitoring were used to quantify the analytes with transitions m/z 587.2>441.2 for TP300, 459.1>415.2 for 3076, and 475.1>361.1 for 3011. The inter- and intra-day precisions were below 12%, and the accuracy was between −16% and 16% at the lower limit of quantitation (LLOQ) and between −11% and 14% at the other quality controls. The LLOQs of TP300, TP3076, and TP3011 were 0.8, 0.04, and 0.04 ng/mL, respectively.
Pharmacokinetic parameters derived from plasma concentration-time data of TP3076 or TP3011 by non-compartmental methods using WinNonlin (version 5.1; Pharsight Corp), included maximal plasma concentration (Cmax) and time of Cmax (Tmax), apparent plasma elimination half-life (t1/2), and the area under the curve (AUC). The urinary excretion ratio (fe) of TP3076 and TP3011 was calculated from the urinary concentration and volume up to 48 hours after administration, and the administration dose. The linearity of Cmax and AUC was determined with linear regression, analysis of variance and power model analysis. The sum of the AUCs of TP3076 and TP3011 was plotted against percentage (%) fall in nadir neutrophil count to explore the relationship between exposure and myelosuppression as a measure of anti-proliferative effect and a sigmoid Emax model fitted to the data: […]

CYP2D6 = tested on: CYP2D6; design: species or system human; settings: in vivo
Experimental: as §1, with “The specificity of PCR conditions was confirmed by the agarose gel electrophoresis. Amplicons were prepared twice for every exons. The amplicons were subsequently treated with ExoSAP-IT (GE Healthcare) followed by the reactions with a cycle sequencing kit (BigDye Terminator v3.1, Applied Biosystems).” left out, “The resulted sequences were compared against the reference sequence using the variant reporter software (Applied Biosystems).” left out

Topo-1 = tested on: Topo-1; design: method as in PMID 19495753; settings: cited from earlier work
[3] = tested on: HCT-116 colorectal cancer cells; design: method as in PMID 19254843; settings: HCT-116 colorectal cancer cells in vitro; cited from earlier work
[4] = TP300 1 mg/m^2 1-hour i.v. infusion, N=3
[5] = TP300 2 mg/m^2 1-hour i.v. infusion, N=3
[6] = TP300 4 mg/m^2 1-hour i.v. infusion, N=3
[7] = TP300 6 mg/m^2 1-hour i.v. infusion, N=3
[8] = TP300 8 mg/m^2 1-hour i.v. infusion, N=3
[9] = TP300 10 mg/m^2 1-hour i.v. infusion, N=12
[10] = TP300 12 mg/m^2 1-hour i.v. infusion, N=4

| Compound | AUC of SN-38 at which DLTs occur [1] [µmol·h/L] | difference of exposure (Cmax, AUC) among AOX1 (c3404A > G) genotypes (AOX1) | difference in exposure (Cmax, AUC) among UGT1A1*28 genotypes (UGT1A1) | fe (urinary excretion ratio) [2, 4] [%] | fe (urinary excretion ratio) [2, 5] [%] | fe (urinary excretion ratio) [2, 6] [%] | fe (urinary excretion ratio) [2, 7] [%] | fe (urinary excretion ratio) [2, 8] [%] | fe (urinary excretion ratio) [2, 9] [%] | fe (urinary excretion ratio) [2, 10] [%] | Urinary excretion ratios ([2]; human, in vivo) | dose dependence of Cmax and AUC ([2]; human, in vivo) | Tmax ([2]; human, in vivo, Tmax) [h] | half-life ([2]; human, in vivo, iv, t1/2) [min] | exposure in CYP2D6 extensive metabolisers (CYP2D6) | Topo-1 inhibition relative to SN38 (Topo-1) | IC50 [3] | Tmax ([2]; human, in vivo, iv, tmax) [h] | Glucuronidated TP3076 (detection) ([2]; in vivo) |
| --- | --- | --- | --- | --- | --- | --- | --- | --- | --- | --- | --- | --- | --- | --- | --- | --- | --- | --- | --- |
| CCc1c2c(nc3ccc(O)cc13)-c1cc3c(c(=O)n1C2)COC(=O)[C@]3(O)CC [SN-38] | 1.5 |  |  |  |  |  |  |  |  |  |  |  |  |  |  |  |  |  |  |
| CCCCCN1C(=O)Nc2cccc3nc4c(c1c23)Cn1c-4cc2c(c1=O)COC(=O)[C@]2(O)CC [TP3011] |  | no apparent significant difference | no apparent significant difference | 0.792 | 0.739 | 0.796 | 0.593 | 0.594 | 1.10 | 1.99 | at most 6% | increased proportionately | 3 to 5 | 415 | slight decrease | equipotent | sub-nanomolar range |  |  |
| CCCCCN1C=Nc2cccc3nc4c(c1c23)Cn1c-4cc2c(c1=O)COC(=O)[C@]2(O)CC [TP3076] |  | no apparent significant difference | no apparent significant difference | 2.45 | 2.87 | 1.31 | 1.78 | 1.71 | 3.09 | 6.33 | at most 6% | increased proportionately | 1 |  | slight reduction | equipotent | sub-nanomolar range | 1.26 | not detected |
